Assay results as given in patent US20240318143A1, “POST-PROCESSING OF BIOLOGICAL SCAFFOLDS” (Lung Biotechnology PBC, priority 2023, published 2024).

Test system: PAECs
Experiment: PAEC attachment and morphology after 24 hours on discs surface modified with peptides (FIGS. 8A-10G, FIJI analysis)
Assay type: cell-based
Settings: 24 hours after seeding, surface modification at 2 μmol/cm^2 and 0.2 μmol/cm^2 (Tests 1-3)
Method: For the experiments in FIGS. 7A-7S, 18 multi-wells were washed in 70% RA. The multi-wells were split into 6 groups of surface modification, which were P/G/A/B/F, PHSRNKRGD (SEQ ID NO: 9) (referred to as “PHK” in the figures), AG73, GFOGER (SEQ ID NO: 10), BM-Binder, and FN-Binder. Surface modification was conducted with the peptide solutions in Table 4. Peptides were prepared at 2 μmol/cm^2 concentrations for surface modification, but the actual concentration was adjusted for the thiol concentration. Following surface modification, wells were seeded with PAECs at a concentration of 625000 per cm^2. 24 hours after seeding, the wells were fix stained and imaged to quantify cell morphology. Model surface area was 10.1 cm^2.
FIGS. 8A-10G provide data on experiments to compare cell seeding and proliferation on surfaces with single peptide or combination peptide modification at different concentrations, 2 μmol/cm^2 and 0.2 μmol/cm^2. The solutions used for peptide modification had the actual peptide concentrations noted in Table 5.
(§1) FIGS. 8A-8G illustrate PAEC morphology after 24 hours on discs surface modified with various peptides at 2 μmol/cm^2 concentration according to Test 1. FIG. 8A are stained disk scans of PAECs cultured on 6 different surface modification peptides. FIGS. 8B-8G are graphs of FIJI analysis of circularity frequency distribution.
as §1, with “9A-9G” for “8A-8G”, “concentration adjusted to the volume used in the PGABF′ condition” for “concentration”, “2.” for “1.”, “9A” for “8A”, “9B-9G” for “8B-8G”
FIGS. 10A-10G illustrate PAEC morphology after 24 hours on discs surface modified with various peptides at 0.2 μmol/cm^2 concentration according to Test 3. FIG. 10A are stained disk scans of PAECs cultured on 6 different surface modification peptides. […] FIJI analysis is a method of quantifying stained disk scans. […]

GCREISAFLGIPFAEPPMGPRRFLPPEPKKP [B]
Cell attachment and morphology: little cell attachment and those that were attached were round with little to no elongation

GCREKKRKRLQVQLSIRT [A, laminin-derived peptide recognized by syndecans]
Cell attachment and morphology: some cells that were elongated but that did not have full stretching as seen in other test conditions, and an increase in rounder cells

GCREKKTLQPVYEYMVGV [F]
Cell attachment and morphology: little cell attachment and those that were attached were round with little to no elongation
